According to patent US20070009568A1, “METHODS FOR IMMOBILIZING MOLECULES ON SURFACES” (priority 2005, published 2007):
Entries after “also recorded” stand apart in the source; their conditions may differ.

Test system: fibroblasts
Assay: Fibroblast attachment to tresylated titanium wire grafted with P-15
Type: cell-based
Conditions: then P-15 1 mg/ml in 100 mM phosphate buffer pH 7.4 overnight, compared with control wire not exposed to P-15
Method: In this Example, titanium wire was treated with tresylation and attachment of P-15, followed by exposure to fibroblasts. The titanium wire was washed thoroughly in ethanol, then soaking in a 0.1 N NaOH solution for 15 minutes, followed by washing 10× with DI H2O. The surface was then rinsed in full strength H2O2, then soaked in 50% H2O2 overnight. The wire was then placed in a tresylation reaction mixture of trifluoroethanesulfonyl chloride (200 ul), pyridine (1.0 ml), and tetrahydrofuran (20 ml) overnight, followed by washing in DI H2O. The surface was then placed in a solution containing P-15 1 mg/ml in 100 mM phosphate buffer, pH 7.4, overnight. Following this treatment, the wire was again rinsed in DI H2O, then placed in a cell culture which contained fibroblasts that had been fluorescently labeled for 24 hours.
As a control, a second titanium wire was treated identically to the first wire, described above, except that it was not exposed to P-15 before being exposed to the fluorescently-labeled cells.

G-T-P-G-P-Q-G-I-A-G-Q-R-G-V-V (GTPGPQGIAGQRGVV) [P-15, collagen receptor agonist]
attachment of fluorescently labeled fibroblasts to the wire (photomicrographs, FIG. 1): increased fibroblast binding; also recorded: far more attached cells
